Results taken from paper PMC3320615, “β-Microseminoprotein Endows Post Coital Seminal Plasma with Potent Candidacidal Activity by a Calcium- and pH-Dependent Mechanism” (PLoS Pathogens, 2012).

Columns and labels:
[1] = test system: Candida albicans ATCC 90028; experiment: CFU assay with C. albicans; type: cell-based; conditions: for Estimate (difference between means of log values): control - treatment
Text: Candida albicans strains: ATCC 90028, CAF-1-2, SC5814, BM4f35II68, vaginal clinical isolates from Dept. of Clincal Microbiology, Skåne University Hospital, SO_303369 and SO_503471. Candida parapsilosis strains: ATCC 90018, BD1800, BD17837, and BM24/68/09. Candida glabrata strains: ATCC 90030, clinical isolates from Dept. of Clincal Microbiology, Skåne University Hospital, SO_3336, SO_3400 and SO_503413. All strains were inoculated from frozen culture and grown in Yeast extract-Peptone-Dextrose (YPD) (Sigma) and on Sabourand Dextrose Broth (SAB) (Difco) plates at 30°C with 5% (v/v) CO2. If not otherwise stated, ATCC 90028 was used for candidacidal experiments.
Candida albicans was grown over night, washed, and resuspended in 10 mM Tris, 5 mM glucose, pH 7.4 or pH 4. Approximately 4×10^3 to 10^4 CFU of C. albicans were incubated with the test substance in low or neutral pH buffer for 4 h at 37°C. After incubation, the suspension was diluted and plated. Colonies were counted after two days incubation of the plates at 30°C. Bacteria from overnight cultures were inoculated in fresh medium and grown for 3 h, washed in 10 mM Tris, 5 mM glucose pH 7.4. Approximately 8×10^4 CFU were incubated with sample in 10 mM Tris, 5 mM glucose pH 7.4 or pH 4 for 1 h at 37°C, diluted, plated and incubated over night at 37°C and the colonies counted.
Statistical analysis was performed using SAS 9.2 software (SAS Institute, Cary, NC). Colony counts were log transformed. In order to choose the statistical method, interactions between the Treatment and Experiment were investigated. Treatments were screened by doing pair wise comparisons of each treatment to a control. Statistical tests used for the comparisons included MIXED procedure and LSMEANS statement. All tests where P-value<.05 were considered to indicate statistical significance. P-values were not adjusted for the multiple comparisons.
“Estimate” is the estimate of the difference between means of log values of treatment 1 and treatment 2

C. albicans = experiment: Antifungal gel overlay assay (AU-PAGE); type: cell-based, Candida albicans
Experimental: Gel overlay assay was performed essentially as described. Briefly, duplicate samples were run on native Acid Urea (AU-PAGE) gels in 5% (v/v) acetic acid at 100 V for 1 h 20 min. Candida albicans was grown over night, washed and resuspended in 10 mM NaPO4 pH 7.4 and approximately 1×10^5 CFU were added to 12 ml melted underlay agarose (10 mM NaPO4, pH 7.4, 0.03% SAB, 1% agarose type 1 (Sigma, St. Louis, MO)) and poured into a square Petri dish. One AU-gel was stained with Coomassie brilliant blue and one AU gel was washed 3×4 min in 10 mM NaPO4, pH 7.4 and then placed on top of the agarose and incubated for 4 h at 37°C. The AU gel was then removed and an overlay agarose (6% SAB, 1% agarosetype 1 (Sigma)) was poured on top of the underlay and incubated over night at 30°C. To make the clearing zones more visible, the agarose was stained with Coomassie brilliant blue followed by destaining.

[2] = Liposome leakage (carboxyfluorescein release); type: biochemical; conditions: control experiments with EDTA alone
Experimental: Subsequently, buffer (10 mM Tris, pH 7.4) was added together with 0.1 M carboxyfluorescein (CF) (Sigma, St Louis, MO). After hydration, the lipid mixture was subjected to eight freeze-thaw cycles consisting of freezing in liquid nitrogen and heating to 60°C. Unilamellar liposomes of about Ø140 nm were generated by multiple extrusions through polycarbonate filters (pore size 100 nm) mounted in a […] (Avestin, Ottawa, Canada) at 22°C. Untrapped CF was then removed by two gel filtrations (Sephadex G-50) at 22°C, with Tris buffer as eluent. CF release was determined by monitoring the emitted fluorescence at 520 nm from liposome dispersions (10 mM lipid in 10 mM Tris). An absolute leakage scale was obtained by disrupting the liposomes at the end of the experiment through addition of 0.8 mM Triton X100 (Sigma, St Louis, MO), causing 100% release and dequenching of CF. Although calcein is frequently used for pH-dependent leakage studies, the high charge of this dye has been noted to influence its leakage behavior in the presence of highly cationic peptides. Instead, therefore, CF was used as a leakage marker at both pH 6.0 and 7.4, avoiding pH-dependent fluorescence effects through neutralization prior to probing the limiting leakage in case of pH 6.0 leakage. Throughout, a SPEX-fluorolog 1650 0.22-m double spectrometer (SPEX Industries, Edison, NJ) was used for the liposome leakage assay. Measurements were performed in at least triplicate at 37°C.

[3] = 5 µM, pH 4, with EDTA, experiment 1
[4] = 5 µM, pH 4, with EDTA, experiment 2
[5] = 5 µM, pH 4, with EDTA, experiment 3
[6] = 5 µM, pH 4, without EDTA, experiment 1
[7] = 5 µM, pH 4, without EDTA, experiment 2
[8] = 5 µM, pH 4, without EDTA, experiment 3

IVVEKKDPKKTCSVSEWII [MSP6, synthetic MSP-derived peptide]
Estimate (difference between means of log values) [1, 3]: 1.6087 | Estimate (difference between means of log values) [1, 4]: 3.2325 | Estimate (difference between means of log values) [1, 5]: 0.6931 | Estimate (difference between means of log values) [1, 6]: -0.00322 | Estimate (difference between means of log values) [1, 7]: 0.07848 | Estimate (difference between means of log values) [1, 8]: 0.9139

EISCCTLVSTPVGYDKDNCQ [MSP4, synthetic MSP-derived peptide]
Estimate (difference between means of log values) [1, 3]: -0.3731 | Estimate (difference between means of log values) [1, 4]: -0.4012 | Estimate (difference between means of log values) [1, 5]: -0.1411 | Estimate (difference between means of log values) [1, 6]: -0.5304 | Estimate (difference between means of log values) [1, 7]: -0.8100 | Estimate (difference between means of log values) [1, 8]: -0.2155

TNKCQKILNKKTCTYTVVEK [PMSP, peptide from porcine MSP corresponding to human MSP61–80]
Effect of calcium and magnesium on antifungal activity ([1]; data not shown): inhibited by calcium but not magnesium | Fungicidal activity compared with human MSP61–80 ([1]; pH 4, with and without EDTA, Figure S4): even higher fungicidal activity than its human counterpart | Difference of mean colony counts between control and treatment ([1]; pH 4, with and without EDTA, three independent experiments): Significant difference (reduction)

KDNCQRIFKKEDCKYIVVEK [MSP5, synthetic MSP-derived peptide encompassing residues 61–80]
Fungicidal activity in CFU assay (rank among overlapping peptides) ([1]; 5 µM, pH 4): highest fungicidal activity of the tested peptides | Estimate (difference between means of log values) [1, 3]: 2.0492 | Estimate (difference between means of log values) [1, 4]: 4.5365 | Estimate (difference between means of log values) [1, 5]: 3.0952 | Estimate (difference between means of log values) [1, 6]: 0.5704 | Estimate (difference between means of log values) [1, 7]: 0.3334 | Estimate (difference between means of log values) [1, 8]: 0.6913

RKCMDLKGNKHPINSEWQTD [MSP2, synthetic MSP-derived peptide]
Estimate (difference between means of log values) [1, 3]: 0.5727 | Estimate (difference between means of log values) [1, 4]: 0.2951 | Estimate (difference between means of log values) [1, 5]: 0.5877 | Estimate (difference between means of log values) [1, 6]: -0.4638 | Estimate (difference between means of log values) [1, 7]: -0.7678 | Estimate (difference between means of log values) [1, 8]: 0.2466

SCYFIPNEGVPGDSTRKCMD [MSP1, synthetic MSP-derived peptide]
Estimate (difference between means of log values) [1, 3]: -0.3564 | Estimate (difference between means of log values) [1, 4]: -0.5558 | Estimate (difference between means of log values) [1, 5]: -0.1369 | Estimate (difference between means of log values) [1, 6]: -0.6949 | Estimate (difference between means of log values) [1, 7]: -0.6938 | Estimate (difference between means of log values) [1, 8]: -0.2057

LL-37 [reference compound]
Estimate (difference between means of log values) ([1]; 50 µM LL-37, pH 4, + 50 µM calcium, experiment 1): 1.6956 | Estimate (difference between means of log values) ([1]; 50 µM LL-37, pH 4, + 50 µM calcium, experiment 2): 1.8880 | Estimate (difference between means of log values) ([1]; 50 µM LL-37, pH 4, + 75 µM calcium, experiment 1): 1.5909 | Estimate (difference between means of log values) ([1]; 50 µM LL-37, pH 4, + 75 µM calcium, experiment 2): 1.5305 | Estimate (difference between means of log values) ([1]; 50 µM LL-37, pH 4, + 100 µM calcium, experiment 1): 1.3942 | Estimate (difference between means of log values) ([1]; 50 µM LL-37, pH 4, + 100 µM calcium, experiment 2): 1.4384 | Estimate (difference between means of log values) ([1]; 50 µM LL-37, pH 4, + 200 µM calcium, experiment 1): 1.3064 | Estimate (difference between means of log values) ([1]; 50 µM LL-37, pH 4, + 200 µM calcium, experiment 2): 1.4253 | Estimate (difference between means of log values) ([1]; 50 µM LL-37, pH 4, no calcium, experiment 1): 1.6339 | Estimate (difference between means of log values) ([1]; 50 µM LL-37, pH 4, no calcium, experiment 2): 2.4025 | Estimate (difference between means of log values) ([1]; 50 µM LL-37, pH 7.4, + 50 µM calcium, experiment 1): 2.0757 | Estimate (difference between means of log values) ([1]; 50 µM LL-37, pH 7.4, + 50 µM calcium, experiment 2): 2.0565 | Estimate (difference between means of log values) ([1]; 50 µM LL-37, pH 7.4, + 50 µM calcium, experiment 3): 2.6878 | Estimate (difference between means of log values) ([1]; 50 µM LL-37, pH 7.4, + 75 µM calcium, experiment 1): 1.1627 | Estimate (difference between means of log values) ([1]; 50 µM LL-37, pH 7.4, + 75 µM calcium, experiment 2): 2.6753 | Estimate (difference between means of log values) ([1]; 50 µM LL-37, pH 7.4, + 75 µM calcium, experiment 3): 2.9703 | Estimate (difference between means of log values) ([1]; 50 µM LL-37, pH 7.4, + 100 µM calcium, experiment 1): 1.6404 | Estimate (difference between means of log values) ([1]; 50 µM LL-37, pH 7.4, + 100 µM calcium, experiment 2): 2.5186 | Estimate (difference between means of log values) ([1]; 50 µM LL-37, pH 7.4, + 100 µM calcium, experiment 3): 2.6194 | Estimate (difference between means of log values) ([1]; 50 µM LL-37, pH 7.4, + 200 µM calcium, experiment 1): 1.4145 | Estimate (difference between means of log values) ([1]; 50 µM LL-37, pH 7.4, + 200 µM calcium, experiment 2): 2.7659 | Estimate (difference between means of log values) ([1]; 50 µM LL-37, pH 7.4, + 200 µM calcium, experiment 3): 3.5282 | Estimate (difference between means of log values) ([1]; 50 µM LL-37, pH 7.4, no calcium, experiment 1): 3.2986 | Estimate (difference between means of log values) ([1]; 50 µM LL-37, pH 7.4, no calcium, experiment 2): 3.2280 | Estimate (difference between means of log values) ([1]; 50 µM LL-37, pH 7.4, no calcium, experiment 3): 4.0296

prostate specific antigen: major protein from the prostate [reference compound]
Clearing zone in antifungal gel overlay assay (C. albicans): did not give rise to clearing zones

O=C(O)CN(CCN(CC(=O)O)CC(=O)O)CC(=O)O [EDTA, reference compound]
Estimate (difference between means of log values) ([1]; 25 µM, pH 4, experiment 1): 0.3309 | Estimate (difference between means of log values) ([1]; 25 µM, pH 4, experiment 2): -0.2077 | Estimate (difference between means of log values) ([1]; 25 µM, pH 4, experiment 3): -0.01878 | Liposome rupture [2]: no liposome rupture

EWQTDNCETCTCYETEISCC [MSP3, synthetic MSP-derived peptide]
Estimate (difference between means of log values) [1, 3]: 0.09392 | Estimate (difference between means of log values) [1, 4]: 0.05166 | Estimate (difference between means of log values) [1, 5]: -0.02824 | Estimate (difference between means of log values) [1, 6]: -0.2487 | Estimate (difference between means of log values) [1, 7]: -0.7316 | Estimate (difference between means of log values) [1, 8]: -0.09956
